This note sets out measurements from US9682026B2, “Oral care product and methods of use and manufacture thereof” (Colgate-Palmolive Company, priority 2008, dated 2017).

This assay concerns S. sanguis. Put plainly: Ammonia production by S. sanguis at pH 4.0. Format: cell-based. The note with it: 5 millimolar amino acid, 0.1% sucrose, pH 4.0, 37° C., 30 minutes; mean of 6 trials. As to the method: An overnight culture of S. sanguis was grown at 37° C. in trypticase soy broth (Becton Dickinson, Sparks, Md.). The culture was centrifuged at 5,000 rpm for 5 minutes at 1 milliliter at a time into preweighed tubes in order to accumulate approximately 5 milligrams of wet pellet weight. The pellet was then resuspended into 20 millimolar potassium phosphate buffer (J T Baker, Phillipsburg, N.J.), pH 4.0, to simulate a stressed environment for the bacterial cell where ammonia would be produced for survival. The final concentration was 5 milligram per milliliter. To this final concentration, a 5 millimolar final concentration of L-arginine, L-citrulline, or L-ornithine was added along with a 0.1% final concentration of sucrose (VWR, West Chester, Pa.). This mixture was then incubated at 37° C. in a shaking water bath for 30 minutes before ammonia production was determined.
In order to analyze for ammonia, an Ammonia Assay kit was used from Diagnostic Chemicals Limited (Oxford, Conn.). The intended use of this specific kit is for the in vitro quantification of ammonia in plasma, but the procedure was modified in order to determine and quantify the ammonia production in plaque and/or bacteria.

On to `N=C(N)NCCC[C@H](N)C(=O)O` [L-Arginine, L-arginine], for which the “Ammonia (ppm), Mean” value was found to be 1.06 ppm.

As for `NC(=O)NCCC[C@H](N)C(=O)O` [L-Citrulline, L-citrulline], the “Ammonia (ppm), Mean” value is reported as 0.951 ppm.

Take `NCCC[C@H](N)C(=O)O` [L-Ornithine, L-ornithine]: the “Ammonia (ppm), Mean” value was found to be 0.134 ppm.
